Test results: patent US11332468B2, “Azaindole derivatives as Rho-kinase inhibitors” (CHIESI FARMACEUTICI S.p.A., priority 2017, dated 2022)

Legend:
Rho kinase 1 (ROCK1) = Rho kinase 1 (ROCK1) (Homo sapiens, UniProt Q13464); test: In vitro Rho kinase inhibitory activity assay (ADP-Glo), ROCK1; type: biochemical; conditions: Ki by Cheng-Prusoff from IC50; 10 μM ATP; range of activity
Procedure: (§1) The effectiveness of compounds of the invention to inhibit Rho kinase activity can be determined in a […] assay containing 40 mM Tris pH7.5, 20 mM MgC2 0.1 mg/ml BSA, 50 μM DTT and 2.5 μM peptide substrate (Myelin Basic Protein) using an ADP-Glo kit (Promega). Compounds were dissolved in DMSO such that the final concentration of DMSO was 1% in the assay. All reactions/incubations are performed at 25° C. Compound (2 ul) and either Rho kinase 1 or 2 (4 μl) were mixed and incubated for 30 mins. Reactions were initiated by addition of ATP (4 μl) such that the final concentration of ATP in the assay was 10 μM. After a 1 hour incubation 10 μl of ADP-Glo Reagent was added and after a further 45 minute incubation 20 ul of Kinase Detection Buffer was added and the mixture incubated for a further 30 minutes. The luminescent signal was measured on a luminometer. […] Compounds were tested in dose-response format and the inhibition of kinase activity was calculated at each concentration of compound. To determine the IC50 (concentration of compound required to inhibit 50% of the enzyme activity) data were fit to a plot of % inhibition vs Log10 compound concentration using a sigmoidal fit with a variable slope and fixing the maximum to 100% and the minimum to 0%. To determine the Ki values the Cheng-Prusoff equation was utilized (Ki=IC50/(1+[S]/Km)

Rho kinase 2 (ROCK2) = Rho kinase 2 (ROCK2) (Homo sapiens, UniProt O75116); test: In vitro Rho kinase inhibitory activity assay (ADP-Glo), ROCK2; type: biochemical; conditions: Ki by Cheng-Prusoff from IC50; 10 μM ATP; range of activity
Rho kinase 2 (ROCK2), sequence (O75116 whole entry): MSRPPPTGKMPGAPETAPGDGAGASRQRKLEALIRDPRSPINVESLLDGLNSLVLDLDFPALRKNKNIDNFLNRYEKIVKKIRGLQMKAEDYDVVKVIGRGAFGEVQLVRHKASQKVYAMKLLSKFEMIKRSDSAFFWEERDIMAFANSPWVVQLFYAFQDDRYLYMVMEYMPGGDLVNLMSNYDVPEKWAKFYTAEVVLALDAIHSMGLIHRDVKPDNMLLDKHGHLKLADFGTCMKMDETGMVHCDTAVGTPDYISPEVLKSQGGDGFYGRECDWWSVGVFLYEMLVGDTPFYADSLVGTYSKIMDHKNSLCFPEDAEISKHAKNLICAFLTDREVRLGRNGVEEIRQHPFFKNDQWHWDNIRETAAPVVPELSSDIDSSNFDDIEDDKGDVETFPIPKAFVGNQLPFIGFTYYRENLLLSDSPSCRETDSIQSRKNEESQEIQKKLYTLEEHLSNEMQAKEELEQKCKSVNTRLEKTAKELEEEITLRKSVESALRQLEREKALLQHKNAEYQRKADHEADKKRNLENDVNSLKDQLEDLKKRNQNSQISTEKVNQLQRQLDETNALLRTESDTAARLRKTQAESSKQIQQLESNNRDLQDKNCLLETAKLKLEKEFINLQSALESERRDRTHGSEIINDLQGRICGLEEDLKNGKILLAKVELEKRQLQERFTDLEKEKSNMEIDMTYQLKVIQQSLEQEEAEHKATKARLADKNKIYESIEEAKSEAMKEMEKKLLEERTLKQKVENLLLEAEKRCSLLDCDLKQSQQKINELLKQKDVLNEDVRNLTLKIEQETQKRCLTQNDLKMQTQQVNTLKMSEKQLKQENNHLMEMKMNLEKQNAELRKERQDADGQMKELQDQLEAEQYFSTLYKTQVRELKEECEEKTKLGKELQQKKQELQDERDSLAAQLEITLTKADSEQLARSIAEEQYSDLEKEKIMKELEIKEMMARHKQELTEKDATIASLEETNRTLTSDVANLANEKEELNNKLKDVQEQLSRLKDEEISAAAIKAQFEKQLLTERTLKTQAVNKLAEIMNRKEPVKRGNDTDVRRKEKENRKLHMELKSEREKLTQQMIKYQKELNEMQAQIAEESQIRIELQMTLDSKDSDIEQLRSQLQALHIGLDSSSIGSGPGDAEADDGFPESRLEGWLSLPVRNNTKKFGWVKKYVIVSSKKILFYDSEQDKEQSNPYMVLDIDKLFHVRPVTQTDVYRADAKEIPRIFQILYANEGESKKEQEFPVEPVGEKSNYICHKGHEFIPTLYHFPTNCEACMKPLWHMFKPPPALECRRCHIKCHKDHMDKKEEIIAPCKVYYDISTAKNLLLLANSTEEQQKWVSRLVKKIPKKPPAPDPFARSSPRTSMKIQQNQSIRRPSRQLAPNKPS
Procedure: as §1

Rho kinase 1 (ROCK1), sequence (Q13464 whole entry): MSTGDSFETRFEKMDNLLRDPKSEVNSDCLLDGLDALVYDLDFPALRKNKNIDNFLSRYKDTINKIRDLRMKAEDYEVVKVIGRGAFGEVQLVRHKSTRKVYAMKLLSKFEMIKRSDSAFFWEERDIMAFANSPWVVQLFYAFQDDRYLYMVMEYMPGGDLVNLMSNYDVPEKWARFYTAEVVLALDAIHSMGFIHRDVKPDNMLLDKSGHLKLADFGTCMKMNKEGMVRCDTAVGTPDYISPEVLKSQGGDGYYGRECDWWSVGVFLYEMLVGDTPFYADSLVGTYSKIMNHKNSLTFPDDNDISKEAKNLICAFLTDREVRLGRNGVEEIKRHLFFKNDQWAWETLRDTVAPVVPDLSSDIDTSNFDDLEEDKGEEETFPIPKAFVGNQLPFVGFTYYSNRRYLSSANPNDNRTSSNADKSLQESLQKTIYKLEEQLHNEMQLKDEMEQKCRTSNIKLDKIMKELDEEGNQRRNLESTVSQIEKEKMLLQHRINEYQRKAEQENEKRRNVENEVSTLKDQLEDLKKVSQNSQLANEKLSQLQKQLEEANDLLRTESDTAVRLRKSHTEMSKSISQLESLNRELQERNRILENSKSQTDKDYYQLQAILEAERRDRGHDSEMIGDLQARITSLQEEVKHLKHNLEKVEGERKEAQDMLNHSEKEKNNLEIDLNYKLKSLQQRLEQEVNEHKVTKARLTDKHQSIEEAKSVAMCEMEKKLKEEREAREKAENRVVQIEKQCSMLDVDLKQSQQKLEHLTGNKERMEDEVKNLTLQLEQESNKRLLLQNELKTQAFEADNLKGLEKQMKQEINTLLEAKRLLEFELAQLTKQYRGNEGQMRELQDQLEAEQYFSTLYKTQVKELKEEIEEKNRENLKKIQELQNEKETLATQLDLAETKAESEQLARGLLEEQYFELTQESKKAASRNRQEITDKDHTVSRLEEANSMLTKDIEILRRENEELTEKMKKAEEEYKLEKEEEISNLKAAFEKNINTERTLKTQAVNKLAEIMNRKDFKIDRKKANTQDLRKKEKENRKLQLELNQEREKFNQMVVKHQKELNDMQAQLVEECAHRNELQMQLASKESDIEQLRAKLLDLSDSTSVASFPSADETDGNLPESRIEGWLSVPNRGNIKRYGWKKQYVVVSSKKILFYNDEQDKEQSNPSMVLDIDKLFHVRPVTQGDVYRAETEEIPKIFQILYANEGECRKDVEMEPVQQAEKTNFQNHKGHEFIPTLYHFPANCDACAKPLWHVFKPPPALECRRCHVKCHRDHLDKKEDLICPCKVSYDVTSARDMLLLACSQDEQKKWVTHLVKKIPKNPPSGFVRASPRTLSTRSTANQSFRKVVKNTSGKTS

Compound	Ki (Rho kinase 1 (ROCK1)) [nM]	Ki (Rho kinase 2 (ROCK2)) [nM]
Cc1c[nH]c2nccc(Oc3ccc(CN)cc3F)c12 [Example 12, (3-fluoro-4-((3-methyl-1H-pyrrolo[2,3-b]pyridin-4-yl)oxy)phenyl)methanamine]	< 5	< 5
Cc1c[nH]c2nccc(Oc3ccc(CN(C)C)cc3)c12 [Example 29, N,N-dimethyl-1-(4-((3-methyl-1H-pyrrolo[2,3-b]pyridin-4-yl)oxy)phenyl)methanamine]	5 to 50	5 to 50
Cc1c[nH]c2nccc(Oc3ccc4c(c3)CCCC4N)c12 (stereo not drawn) [Example 26]	5 to 50	5 to 50
